Results from publication PMC12413947, “Caffeine Acts as an Agonist of Siglec-6, Inhibits MRGPRX2-Triggered Mast Cell Degranulation and Anaphylactoid Reactions” (Mediators of Inflammation, 2025).

Molecular target: T1, Siglec-6 (Homo sapiens, UniProt O43699)
T1 construct: gene SIGLEC6; captured on CM5 chip
Assay: surface plasmon resonance (Biacore T200)
Type: binding
From the text: surface plasmon resonance (Biacore T200) on Siglec-6 | The binding affinity between caffeine and Siglec-6 protein is with a calculated KD of […]

T1 sequence (O43699 27-347 limits assumed): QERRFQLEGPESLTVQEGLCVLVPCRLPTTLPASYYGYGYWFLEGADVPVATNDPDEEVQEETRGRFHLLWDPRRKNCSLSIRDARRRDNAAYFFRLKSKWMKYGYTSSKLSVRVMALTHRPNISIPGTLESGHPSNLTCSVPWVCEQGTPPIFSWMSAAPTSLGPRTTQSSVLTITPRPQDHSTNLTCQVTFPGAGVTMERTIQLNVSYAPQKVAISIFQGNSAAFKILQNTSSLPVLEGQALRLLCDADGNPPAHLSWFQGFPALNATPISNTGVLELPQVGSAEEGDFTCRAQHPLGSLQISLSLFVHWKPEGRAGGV

**Q.** How did the Kd turn out when `Cn1c(=O)c2c(ncn2C)n(C)c1=O` [caffeine] was run?
**A.** 176 nM
